From PubChem BioAssay AID1996 come the findings set out here.

Values after ≈ are worked out from the molar mass of the structure shown.

For this data set the following is noted: buffer; pH 7.4; 200.0 µM.
Usually solubility (kinetic) stands for solubility judged after dilution from a stock solution rather than from solid. Take `Cc1cc(C)c(NC(=O)C2CCCO2)c(C)c1NC(=O)C1CCCO1` (configuration not stated): the solubility (kinetic) is greater than 0.052 mg/mL. `O=S(=O)(Nc1ccccc1N1CCCCC1)c1cccs1` had a kinetic solubility of 0.0012 mg/mL (≈ 3.72 µM). Next, `Cc1cc(C(=O)NC(C)C2CCCO2)c(C)o1` (configuration not stated): greater than 0.0356 mg/mL. Take `CC(=O)N1Cc2ccccc2CC1C(=O)NCc1ccccc1F` (configuration not stated): the solubility (kinetic) was greater than 0.049 mg/mL. Next, `CCCCc1ccc(NC(=O)NCc2cccnc2)cc1`: 0.0211 mg/mL (≈ 74.5 µM); `Cc1nn(Cc2cccc(C(=O)O)c2)c(C)c1[N+](=O)[O-]`: greater than 0.0413 mg/mL; `CCCOc1ccc(N2C(=O)C/C(=C\c3ccccc3)C2=O)cc1`: less than 0.0007 mg/mL. As for `COc1ccc(C(=O)CC(=O)C(=O)Nc2ccc(C)c(C)c2)cc1`, the kinetic solubility came out at 0.0124 mg/mL (≈ 38.1 µM).

`CC1CCCN(C(=O)CN2C(=O)NC(C)(c3ccc4ccccc4c3)C2=O)C1` (configuration not stated): the solubility (kinetic) was greater than 0.0569 mg/mL. On to `CC(C)C(=O)Nc1ccc(-c2nc3ccccc3c(=O)o2)cc1`, for which the solubility (kinetic) was determined as 0.0167 mg/mL (≈ 54.2 µM). The figure for `O=C(O)C1C2C=CC(C2)C1C(=O)NCc1ccccc1F` (configuration not stated) is greater than 0.0434 mg/mL; for `Cc1noc(C)c1-c1nc(CS(=O)(=O)c2ccc(Cl)cc2)no1` it is 0.0038 mg/mL (≈ 10.7 µM).

As to `CN(C)CCC#CC1(O)c2ccccc2-c2ccccc21`, the kinetic solubility was 0.0322 mg/mL (≈ 116 µM). With `Cc1cc(C)cc(OCC(=O)OCC(=O)NC2CC2)c1`, the kinetic solubility is greater than 0.0416 mg/mL. `Cc1ccccc1-n1nc2c(c1NC(=O)CC(C)C)CS(=O)C2` (configuration not stated) displayed a solubility (kinetic) greater than 0.0497 mg/mL. The figure for `N#Cc1cnn(-c2ccc(F)cc2)c1N` is greater than 0.0303 mg/mL; for `Nc1cccc2c1C(=O)N(Cc1cccc(Cl)c1)C2=O` it is less than 0.0003 mg/mL; for `O=C(O)c1ccc(Nc2ccc3nonc3c2[N+](=O)[O-])cc1` it is 0.0449 mg/mL (≈ 150 µM). Compound `Cc1noc(C)c1S(=O)(=O)N(C)Cc1ccccc1` gave a solubility (kinetic) of 0.0385 mg/mL (≈ 137 µM). For the compound `O=C(NC1CCN(Cc2ccccc2)CC1)c1ccc(Cl)cc1Cl`, the kinetic solubility is greater than 0.0545 mg/mL. In turn, `COc1ccc(NC(=O)CNC(=O)Cc2ccccc2)cc1` yielded a kinetic solubility of 0.0106 mg/mL (≈ 35.5 µM). Next, `CN(C(=O)COC(=O)c1cccnc1Cl)C1CCCCC1`: greater than 0.0466 mg/mL; `CC1CCCCC1NC(=O)COC(=O)CNC(=O)c1cccc(F)c1` (configuration not stated): 0.0512 mg/mL (≈ 146 µM); `CC(C)n1c(COc2ccccc2)nc2ccccc21`: 0.0241 mg/mL (≈ 90.5 µM).

Compound `Cc1ccc(Nc2nnc(SC(C)C(=O)NCC3CCCO3)s2)cc1` (configuration not stated) yielded a kinetic solubility greater than 0.0568 mg/mL. The figure for `Cc1csc(SCC(=O)NC2CCS(=O)(=O)C2)n1` (configuration not stated) is greater than 0.046 mg/mL. As for `O=C(Nc1ccccc1Cl)c1ccc2nccnc2c1`, the kinetic solubility is greater than 0.0426 mg/mL.

For the compound `O=C1CNC(=S)N1C1CCCCCC1`, the kinetic solubility amounted to 0.0238 mg/mL (≈ 112 µM).

Compound `O=C(NC(=O)c1ccccc1)OCCN1C(=O)c2ccccc2C1=O` showed a solubility (kinetic) greater than 0.0507 mg/mL.

Regarding `CN1CCN(C(=O)c2ccc(Oc3ccc([N+](=O)[O-])cc3)cc2)CC1`, the solubility (kinetic) is greater than 0.0512 mg/mL. Next, `CN(C)CCNC(C(=O)Nc1cc(Cl)cc(Cl)c1)c1ccccc1` (configuration not stated): greater than 0.0549 mg/mL.

The compound `COc1cccc(C(N)=O)c1OC(=O)Cc1ccccc1F` displayed a kinetic solubility greater than 0.0455 mg/mL. As to `O=C(CCCc1ccccc1)NCCc1ccccc1`, the kinetic solubility was determined as 0.0293 mg/mL (≈ 110 µM). As for `COc1cccc(/C=N/NC(=O)CNC(=O)COc2ccccc2)c1O`, the kinetic solubility was greater than 0.0536 mg/mL. As for `Cc1nc(C)c(C(=O)Nc2cccc(C)c2C)s1`, the solubility (kinetic) is greater than 0.0391 mg/mL.

Regarding `CC(Sc1ccc2ccccc2c1)C(=O)NC(N)=O` (configuration not stated), the kinetic solubility is 0.0086 mg/mL (≈ 31.3 µM). `O=S(=O)(NCCc1ccccc1)c1ccc(Br)cc1` gave a solubility (kinetic) of 0.0035 mg/mL (≈ 10.3 µM). The figure for `Cc1cc(C)c(NC(=O)CCc2c(C)noc2C)c(C)c1` is greater than 0.043 mg/mL; for `Nc1nc(C23CC4CC(CC(Cl)(C4)C2)C3)cs1` it is 0.0085 mg/mL (≈ 31.6 µM).

For `COc1ccc(C(C)=NNc2ccc([N+](=O)[O-])cc2S(=O)(=O)Nc2ccccc2C(=O)O)c(OC)c1`, the solubility (kinetic) is greater than 0.0772 mg/mL. With `OCCC1CN(CCCc2ccccc2)CCN1Cc1ccccc1` (configuration not stated), the solubility (kinetic) is greater than 0.0508 mg/mL.

`Cc1ccsc1C1C(C#N)=C(N)OC2=C1C(=O)CC(C)(C)C2` (configuration not stated) gave a solubility (kinetic) greater than 0.0472 mg/mL. As to `CN(CCOc1ccc(Cl)cc1)C(=O)C1=CC=CN2CCS(=O)(=O)N=C12`, the solubility (kinetic) is greater than 0.0594 mg/mL. In the case of `CC1CCOC2(O1)C(=O)Nc1ccccc12` (configuration not stated), the kinetic solubility came out at 0.0244 mg/mL (≈ 111 µM). In the case of `Cc1ccc(NC(=O)COC(=O)c2ccco2)cc1S(=O)(=O)N1CCOCC1`, the kinetic solubility was greater than 0.0613 mg/mL. Compound `O=C(Cc1ccc(-c2ccccc2)cc1)Nc1ccccc1` had a solubility (kinetic) of 0.0017 mg/mL (≈ 5.92 µM).

As for `Cl.O=C(NC12CC3CC(CC(C3)C1)C2)OCCNC1CCCCC1`, the solubility (kinetic) is greater than 0.0535 mg/mL.

In turn, `Cc1nc(Cl)sc1C(=O)Nc1ccccc1Cl` showed a kinetic solubility of 0.0217 mg/mL (≈ 75.6 µM). In turn, `CCN(CC(=O)Nc1ccc(S(=O)(=O)N2CCCC2)cc1)CC(=O)Nc1ccccc1C(F)(F)F` displayed a solubility (kinetic) of 0.0212 mg/mL (≈ 41.4 µM).

On to `COc1cccc(Oc2ccc(S(=O)(=O)N3CCOCC3)cc2[N+](=O)[O-])c1`, for which the solubility (kinetic) came out at 0.011 mg/mL (≈ 27.9 µM). For the compound `Cc1ccc([N+](=O)[O-])cc1NC(=O)c1ccccc1`, the kinetic solubility came out at 0.0085 mg/mL (≈ 33.2 µM). With `CC(C)c1ccccc1OCCNC(=O)c1cncc(Br)c1`, the kinetic solubility is 0.0364 mg/mL (≈ 100 µM).
